From US20140121235A1, “Method for Treating S6K-Overexpressing Cancers” (Rush University Medical Center, priority 2012, published 2014)

What was measured:
BT-20 cells = assay: Western blot of protein phosphorylation in BT-20 cells; assay type: cell-based
Description: (A) A77 1726 induces MAP kinase activation in A375 cells cultured in 10% fetal bovine serum. A375 cells were seeded in a 6-well plate overnight and then stimulated with various concentrations of A77 1726 or PLX 4720 (1 μM) for 2 hr. Cells were harvested and analyzed for MAP kinase activation by anti-phospho-ERK1/2 antibody. The membrane was stripped and re-probed with anti-ERK1/2 antibody. (B) Lack of the feedback activation of the MAP and PI-3 kinase pathways in BT-20 cells. BT20 cells seeded in 6-well plates were starved in DMEM medium containing 05% EBS for 2 hr and treated with A77 1726 (0, 50 or 100 μM), Cells were harvested and analyzed for protein phosphorylation by specific antibodies as indicated. Protein loading was monitored by stripping membrane and re-probing with antibodies against non-phosphorylated proteins. (C) Strong feedback activation of the PI-3 kinase pathway and weak feedback activation of the MAP kinase pathway in MCF-7 cells by A77 1726 and rapamycin. […] Cells were harvested and analyzed for protein phosphorylation with the indicated antibodies. […] Cells were harvested and analyzed for protein phosphorylation by specific antibodies as indicated. Protein loading was monitored by stripping membrane and re-probing with antibodies against nonphosphorylated proteins. […]

[1] = biological target: recombinant p70 S6 kinase (S6K1) (Homo sapiens, UniProt P23443); assay: In vitro p70 S6 kinase assay (ADP-Glo Kinase assay system); assay type: biochemical; conditions: 30 min pre-incubation, ATP 10 μM, 1 hr, read-out: IC50, inhibition of recombinant S6K1 activity
Description: Leflunomide and A77 1726 diluted at the final concentrations as indicated were pre-mixed with S6K1 for 30 min, followed by the addition of peptide substrate of S6K1 and incubation for 1 hr. S6K1 activity was measured by using a ADP-Glo™ system. The experiment was repeated with similar results. The data represents the mean±standard deviation from one experiment in triplicate.
The ability of lefiunomide and A77 1726 to inhibit p70 S6 kinase assay was conducted by using an ADP-Glo™ Kinase assay system (Promega Corporation, Madison, Wis.). Briefly, A77 1726 or leflunomide diluted in the kinase buffer was mixed with recombinant p70 S6 kinase (100 ng/reaction) and incubated at room temperature for 30 min. Peptide substrate of p70 S6 kinase (5 μg/reaction) and ATP (10 μM, final concentration) was added, with a total final volume of 25 μl. After incubation for 1 hr, ADP-Glo™ reagent (25 μl) was added to each reaction. After incubation for 40 min, kinase detection substrate (luciferin) (50 μl/reaction) was added. After incubation fix 30 min, luciferase activity was measured by reading in a luminescence plate reader. The experiment was conducted in triplicate and repeated once with similar results. The data from one experiment were presented as mean±standard deviation.

[2] = test system: ribosomal protein S6^S235/S236 phosphorylation; assay: Western blot of S6 phosphorylation in A375 cells; assay type: cell-based
Description: A375 cells seeded in a 6-well plate were starved in DMEM medium containing 0.5% FBS for 2 hr and treated with the indicated concentration of A77 1726 or PLX 4720 (1 μM) for another 2 hr (A) or treated with A77 1726 (100 μM) for the indicated time (B & C). Cells were harvested and analyzed for protein phosphorylation by specific antibodies as indicated. Protein loading was monitored by stripping membrane and re-probing with antibodies against non-phosphorylated proteins. […] A375 cells seeded in a 6-well plate were starved in DMEM medium containing 05% FBS for 2 hr and treated with the indicated concentration of A77 1726 in the absence or presence of uridine (200 μM). Phosphorylated and total proteins were analyzed by Western blot as described above.
A375 cells seeded in 6-well plates were starved in DMEM medium containing 0.5% FBS for 2 hr and then pre-treated with vehicle (0.1% dimethyl sulfoxide), LY294002 (10 μM) (A), PPP (1 μM) (B), or the inhibitors of the MAP kinase pathway (PLX4720, 1 μM; U0126, 10 μM; PD98059, 10 μM) (C) for 1 hr. Cells were then treated with A77 1726 (100 μM) or rapamycin (20 nM) as indicated for 2 hr. Cells were harvested and analyzed for protein phosphorylation by specific antibodies as indicated. Protein loading was monitored by stripping membrane and re-probing with antibodies against non-phosphorylated proteins.
Cells grown in 6-well plates were harvested and lysed in NP-40 lysis buffer (50 mM Tris-HCI (pH 8.0), 150 mM NaCl, 1% NP-40, 5 mM EDTA, 10 μg/ml aprotinin, 10 μg/ml leupeptin, and 1 mM phenylmethylsulfonyl fluoride). After incubation on ice for 30 min, the cell lysates were prepared by spinning down at 4° C., 15,000 rpm for 15 min. After electrophoresis and transfer to Immobolin membrane, proteins of interest were probed with their specific antibodies, followed by horseradish peroxidase-conjugated goat anti-rabbit IgG and SuperSignal Western Pico enhanced chemiluminoscence substrate (Pierce Chemical Co., Rockford, Ill.).
The PI-3 and MAP kinase pathways play an important role in cell proliferation, differentiation, and cell cycle progress. Multiple genes in these two pathways are frequently mutated and have a commanding role in driving tumorigenesis and tumor cell proliferation (2; 3). […] Here we tested whether A77 1726 affected the activation of MAP and PI-3 kinase pathways. A375 cells grown in 6-well plates were starved in the media containing 0.5% FBS for 2 hr and then treated with the indicated concentration of A77 1726. […] We next explored the effect of A77 1726 in phosphorylation of the molecules in the PI-3 kinase pathway.

Chain of recombinant p70 S6 kinase (S6K1) (P23443 whole entry): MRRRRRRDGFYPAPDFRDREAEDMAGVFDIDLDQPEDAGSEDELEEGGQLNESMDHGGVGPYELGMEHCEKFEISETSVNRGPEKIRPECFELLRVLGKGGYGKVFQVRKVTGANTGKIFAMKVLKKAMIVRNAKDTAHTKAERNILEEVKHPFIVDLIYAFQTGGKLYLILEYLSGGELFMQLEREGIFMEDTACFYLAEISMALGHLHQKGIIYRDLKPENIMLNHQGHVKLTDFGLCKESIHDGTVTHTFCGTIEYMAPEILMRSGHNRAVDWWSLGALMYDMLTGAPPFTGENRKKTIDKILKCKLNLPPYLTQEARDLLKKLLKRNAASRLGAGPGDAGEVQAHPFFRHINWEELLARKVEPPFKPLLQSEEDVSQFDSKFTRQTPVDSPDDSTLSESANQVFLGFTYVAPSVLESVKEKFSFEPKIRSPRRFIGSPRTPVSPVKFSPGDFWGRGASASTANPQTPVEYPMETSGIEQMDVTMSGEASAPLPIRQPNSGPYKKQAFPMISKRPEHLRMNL

- IC50 [1]: ~80 µM
- IC50 ([2]; Homo sapiens, A-375, read-out: IC50 to inhibit S6 phosphorylation in cell culture): 50 to 75 µM
Structure (SMILES): C/C(O)=C(\C#N)C(=O)Nc1ccc(C(F)(F)F)cc1 [A77 1726]
- effect on ERK phosphorylation (BT-20 cells): had no effect
- effect on S6^S235/236 phosphorylation (BT-20 cells): Inhibition
- effect on S6^S235/S236 phosphorylation ([2]; A375 cells, A77 1726 dose-dependent or 100 μM, rapamycin 20 nM, PPP 1 μM): inhibited
